Data reported in patent US9187463B2, “Polymorph form of 4-{[4-({[4-(2,2,2-trifluoroethoxy)-1,2-benzisoxazol-3-yl]oxy}methyl)piperidin-1-yl]methyl}-tetrahydro-2H-pyran-4-carboxylic acid” (RAQUALIA PHARMA INC., priority 2011, dated 2015).

What was measured:
Type in all cases: physicochemical
[1] = Hygroscopicity study by dynamic vapor sorption (DVS) analysis; conditions: for weight gain %: 25° C., DVS sorption
Description: Hygroscopicity study is performed using Surface Measurement Systems DVS-1. The sample is placed on a microbalance in the instrument. After the sample is dried under 0% humidity environment at 25° C., relative humidity is raised to 95% RH at 5% RH increments, maintaining the sample at each step until equilibration had been attained. After completion of the sorption cycle, the sample is dried to 10% RH using the same procedure (desorption cycle). The weight change during the sorption/desorption cycle is monitored, allowing for the hygroscopic nature of the sample to be determined.
In the hygroscopicity study by dynamic vapor sorption (DVS) analysis, Polymorph Form I absorbs less than 0.2 wt % under 90% relative humidity (RH) at 25° C. On the other hand, the white solid disclosed in the prior art WO2006/090224 absorbs 1.2 wt % and 5.5 wt % of water under 85% RH and 90% RH, respectively.

[2] = Solid-state stability study (temperature/humidity chamber, Xenon lamp)
Description: Solid-state stability study is performed using Nagano Science Constant temperature/humidity control chamber LH-20-11M, LH-21-11M, LTL-200D3CJ-14 or LTX-01. The sample is placed in the chamber and exposed under 25° C./60% RH, 40° C./75% RH and/or irradiated with a Xenon lamp. The crystalline form, thermal behavior, purity and/or weight change of the resultant sample after the exposure or irradiation are evaluated by XRPD, TG/DTA or DSC, HPLC, microbalance analysis, respectively.

[3] = Thermal polymorph transformation monitored by variable-temperature PXRD; conditions: heating
Description: The PXRD analyses are performed using a Rigaku RINT-TTR X-ray powder diffractometer using Cu-Kα radiation. The samples can also be measured under the high/low temperature condition by using the attachment of the variant-temperature sample holder. The instrument is equipped with a fine focus X-ray tube. The tube voltage and amperage are set to 50 kV and 300 mA respectively. The divergence and scattering slits are set at 0.25° and the receiving slit is set at 0.15 mm. Diffracted radiation is detected by a NaI scintillation detector. A theta-two theta continuous scan at 4°/min (step size 0.02°) from 3 to 40 2-Theta° is used. A silicon standard is analyzed to check the machine alignment. Data are collected and analyzed using-Rigaku X-ray system. Samples are prepared for analysis by placing them in an aluminum sample holder that is horizontally rotated at 60 rpm during data acquisition.
Polymorph Form I begins to transform to Polymorph Form II at around 110° C. […]

[4] = 90% relative humidity (RH) at 25° C.

weight gain % ([1]; 75% RH) [%]	weight gain % ([1]; 80% RH) [%]	water absorbed (DVS) ([1]; 85% RH) [wt %]	weight gain % ([1]; 85% RH) [%]	weight gain % ([1]; 90% RH) [%]	water absorbed (DVS) [1, 4]	stability compared with white solid of WO2006/090224 [2]	temperature at which transformation to Polymorph Form II begins [3]	SMILES
0.33	0.35	1.2	1.2	5.5	5.5 wt %			O=C(O)C1(CN2CCC(COc3noc4cccc(OCC(F)(F)F)c34)CC2)CCOCC1 [White solid disclosed in the prior art WO2006/090224] [4-{[4-({[4-(2,2,2-Trifluoroethoxy)-1,2-benzisoxazol-3-yl]oxy}methyl)piperidin-1-yl]methyl}-tetrahydro-2H-pyran-4-carboxylic acid]
						more stable than white solid		O=C(O)C1(CN2CCC(COc3noc4cccc(OCC(F)(F)F)c34)CC2)CCOCC1 [Polymorph Form II, 4-{[4-({[4-(2,2,2-trifluoroethoxy)-1,2-benzisoxazol-3-yl]oxy}methyl)piperidin-1-yl]methyl}-tetrahydro-2H-pyran-4-carboxylic acid]
0.15	0.15		0.15	0.18	less than 0.2 wt %	more stable than white solid	around 110 °C	O=C(O)C1(CN2CCC(COc3noc4cccc(OCC(F)(F)F)c34)CC2)CCOCC1 [Polymorph Form I, 4-{[4-({[4-(2,2,2-trifluoroethoxy)-1,2-benzisoxazol-3-yl]oxy}methyl)piperidin-1-yl]methyl}-tetrahydro-2H-pyran-4-carboxylic acid]
